The numbers were not newly measured in patent US20240238336A1, “COPPER NANOCLUSTERS, METHODS FOR OBTAINING SAME AND THE USE THEREOF IN THE TREATMENT OF MENKES DISEASE” (priority 2021, published 2024), which cites them from elsewhere.

The data set deals with Menkes syndrome. The conditions noted are these: child; daily subcutaneous injections for two and a half years.

Consider `N[C@@H](Cc1c[nH]cn1)C(=O)O.[Cu]` [copper histidine], for which the development result is reported as “continued to manifest severe developmental delays”; the epilepsy crises entry was “epilepsy crises were eliminated”; the “pigmentation of skin and hair” value was “improved pigmentation of the skin and hair”.
